Data on 26 compounds can be found in patent US7902373B2 (Pfizer Inc, priority 2006, dated 2011).

The assay has as its target human recombinant H-PGDS (Homo sapiens, UniProt O60760). The experiment in a line: Fluorescence intensity h-PGDS TBA enzyme assay. The format is biochemical. As to conditions: Examples up to 622 (and 3a, 3b).

Chain of human recombinant H-PGDS (O60760 whole entry): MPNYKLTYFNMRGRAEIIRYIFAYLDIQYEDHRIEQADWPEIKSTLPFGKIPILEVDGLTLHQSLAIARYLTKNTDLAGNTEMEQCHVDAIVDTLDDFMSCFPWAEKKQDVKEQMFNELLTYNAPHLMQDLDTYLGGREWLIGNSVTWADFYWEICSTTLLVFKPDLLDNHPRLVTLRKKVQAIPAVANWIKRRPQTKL

For `Cc1c(CN2CCC(NC(=O)c3ccc(-c4cccc(F)c4)nc3)CC2)c(=O)n(-c2ccccc2)n1C` [Example 232, N-{1-[(1,5-Dimethyl-3-oxo-2-phenyl-2,3-dihydro-1H-pyrazol-4-yl)methyl]piperidin-4-yl}-6-(3-fluorophenyl)nicotinamide], the IC50 was found to be 2.71 nM.

As to `O=C(N[C@@H]1CN(c2nnnn2-c2ccccc2)C[C@H]1O)c1ccc(-c2cccc(F)c2)nc1` (relative stereo) [Example 619, Trans-6-(3-fluorophenyl)-N-[4-hydroxy-1-(1-phenyl-1H-tetrazol-5-yl)pyrrolidin-3-yl]nicotinamide], the half-maximal inhibitory concentration (IC50) is 1.19 nM.

In the case of `O=C(NC1CCN(Cc2cccc(-c3ncccn3)c2)CC1)c1ccc(-c2cccc(F)c2)nc1` [Example 181, 6-(3-Fluorophenyl)-N-[1-(3-pyrimidin-2-ylbenzyl)piperidin-4-yl]nicotinamide], the half-maximal inhibitory concentration (IC50) was determined as 3.4 nM.

As to `O=C(NC1CCN(CC(F)(F)F)CC1)c1ccc(-c2ccccc2)nc1` [Example 1, 6-Phenyl-N-(1-(2,2,2-trifluoroethyl)piperidin-4-yl)nicotinamide], the half-inhibitory concentration (IC50) stood at 0.204 nM.

For `O=C(NC1CCN(Cc2cccc(-n3cccn3)n2)CC1)c1ccc(-c2cccc(F)c2)nc1` [Example 375, 6-(3-Fluorophenyl)-N-(1-{[6-(1H-pyrazol-1-yl)pyridin-2-yl]methyl}piperidin-4-yl)nicotinamide], the IC50 was 0.667 nM.

On to `N#Cc1cccnc1N1CCC(NC(=O)c2ccc(-c3cccc(F)c3)nc2)CC1` [Example 140, N-[1-(3-Cyanopyridin-2-yl)piperidin-4-yl]-6-(3-fluorophenyl)nicotinamide], for which the 50% inhibitory concentration (IC50) came to 0.628 nM.

In the case of `CCNC(=O)c1ccc(N2CCC(NC(=O)c3ccc(-c4cccc(F)c4)nc3)CC2)nn1` [Example 83, N-Ethyl-6-[4-({[6-(3-fluorophenyl)pyridin-3-yl]carbonyl}amino)piperidin-1-yl]pyridazine-3-carboxamide], the 50% inhibitory concentration (IC50) stood at 0.37 nM.

For the compound `O=C(NC1CCN(Cc2ccnc(NC3CC3)n2)CC1)c1ccc(-c2cccc(F)c2)nc1` [Example 393, N-(1-{[2-(Cyclopropylamino)pyrimidin-4-yl]methyl}piperidin-4-yl)-6-(3-fluorophenyl)nicotinamide], the half-inhibitory concentration (IC50) was 1.18 nM.

For the compound `O=C(NC1CCN(c2nncc3ccccc23)CC1)c1ccc(-c2cccc(F)c2)nc1` [Example 61, 6-(3-Fluorophenyl)-N-(1-phthalazin-1-ylpiperidin-4-yl)nicotinamide], the 50% inhibitory concentration (IC50) was 0.365 nM.

For `O=C(NC1CCN(Cc2ccnc3nccnc23)CC1)c1ccc(-c2cccc(F)c2)nc1` [Example 451, 6-(3-Fluorophenyl)-N-[1-(pyrido[2,3-b]pyrazin-8-ylmethyl)piperidin-4-yl]nicotinamide], the concentration for half-maximal inhibition (IC50) stood at 0.88 nM.

In the case of `Cc1cc(C)c(C#N)c(N2CC(NC(=O)c3ccc(-c4cccc(F)c4)nc3)C2)n1` [Example 602], the IC50 came to 2.98 nM.

Consider `CCn1cnc2c(N3CCC(NC(=O)c4ccc(-c5cccc(F)c5)nc4)CC3)ncnc21` [Example 57, N-[1-(9-Ethyl-9H-purin-6-yl)piperidin-4-yl]-6-(3-fluorophenyl)nicotinamide], for which the IC50 is 0.285 nM.

As to `COC(=O)c1cnc(N)nc1N1CCC(NC(=O)c2ccc(-c3cccc(F)c3)nc2)CC1` [Example 78, Methyl 2-amino-4-[4-({[6-(3-fluorophenyl)pyridin-3-yl]carbonyl}amino)piperidin-1-yl]pyrimidine-5-carboxylate], the IC50 worked out at 0.148 nM.

On to `Cc1nn(C)c(N2CCCOCC2)c1CN1CCC(NC(=O)c2ccc(-c3cccc(F)c3)nc2)CC1` [Example 479, N-(1-{[1,3-Dimethyl-5-(1,4-oxazepan-4-yl)-1H-pyrazol-4-yl]methyl}piperidin-4-yl)-6-(3-fluorophenyl)nicotinamide], for which the IC50 amounted to 0.421 nM.

In the case of `O=C(NC1CCN(Cc2cccc(CF)n2)CC1)c1ccc(-c2cccc(F)c2)nc1` [Example 463, N-(1-{[6-(Fluoromethyl)pyridin-2-yl]methyl}piperidin-4-yl)-6-(3-fluorophenyl)nicotinamide], the IC50 stood at 0.385 nM.

For `Cn1cc(CN2CCC(NC(=O)c3ccc(-c4cccc(F)c4)nc3)CC2)c(=O)n(C)c1=O` [Example 264, N-{1-[(1,3-Dimethyl-2,4-dioxo-1,2,3,4-tetrahydropyrimidin-5-yl)methyl]piperidin-4-yl}-6-(3-fluorophenyl)nicotinamide], the 50% inhibitory concentration (IC50) turned out to be 2 nM.

Consider `O=C(NC1CCN(CCCc2ccccc2)CC1)c1ccc(-c2cccc(F)c2)nc1` [Example 301, 6-(3-Fluorophenyl)-N-[1-(3-phenylpropyl)piperidin-4-yl]nicotinamide], for which the half-inhibitory concentration (IC50) was found to be 1.16 nM.

As for `CC(C)(C)OC(=O)NC1(CN2CCC(NC(=O)c3ccc(-c4cccc(F)c4)nc3)CC2)CCC1` [Example 334, tert-Butyl (1-{[4-({[6-(3-fluorophenyl)pyridin-3-yl]carbonyl}amino)piperidin-1-yl]methyl}cyclobutyl)carbamate], the IC50 is 2.74 nM.

For the compound `CC(C)Oc1ccc(CN2CCC(NC(=O)c3ccc(-c4cccc(F)c4)nc3)CC2)cc1` [Example 217, 6-(3-Fluorophenyl)-N-[1-(4-isopropoxybenzyl)piperidin-4-yl]nicotinamide], the concentration for half-maximal inhibition (IC50) is 1.51 nM.

With `CCOc1cc(CN2CCC(NC(=O)c3ccc(-c4cccc(F)c4)nc3)CC2)ccc1O` [Example 179, N-(1-(3-Ethoxy-4-hydroxybenzyl)piperidin-4-yl)-6-(3-fluorophenyl)nicotinamide], the concentration for half-maximal inhibition (IC50) was 2.26 nM.

As to `CCCN(C)C(=O)c1ccc(N2CCC(NC(=O)c3ccc(-c4cccc(F)c4)nc3)CC2)nc1` [Example 572, 6-[4-({[6-(3-Fluorophenyl)pyridin-3-yl]carbonyl}amino)piperidin-1-yl]-N-methyl-N-propylnicotinamide], the 50% inhibitory concentration (IC50) turned out to be 5.25 nM.

`Cc1cc(NC(=O)c2ccc(N3CCC(NC(=O)c4ccc(-c5cccc(F)c5)nc4)CC3)nn2)n(C)n1` [Example 160, N-(1,3-Dimethyl-1H-pyrazol-5-yl)-6-[4-({[6-(3-fluorophenyl)pyridin-3-yl]carbonyl}amino)piperidin-1-yl]pyridazine-3-carboxamide]: the IC50 stood at 0.483 nM.

`CC(C)c1csc(CN2CCC(NC(=O)c3ccc(-c4cccc(F)c4)nc3)CC2)n1` [Example 433, 6-(3-Fluorophenyl)-N-{1-[(4-isopropyl-1,3-thiazol-2-yl)methyl]piperidin-4-yl}nicotinamide]: the half-maximal inhibitory concentration (IC50) worked out at 0.401 nM.

As to `COc1ccc2c(N3CCC(NC(=O)c4ccc(-c5cccc(F)c5)nc4)CC3)ncnc2c1` [Example 52, 6-(3-Fluorophenyl)-N-[1-(7-methoxyquinazolin-4-yl)piperidin-4-yl]nicotinamide], the half-inhibitory concentration (IC50) was 0.332 nM.

Regarding `Cc1ccc(-n2cccn2)c(CN2CCC(NC(=O)c3ccc(-c4cccc(F)c4)nc3)CC2)c1` [Example 438, 6-(3-Fluorophenyl)-N-{1-[5-methyl-2-(1H-pyrazol-1-yl)benzyl]piperidin-4-yl}nicotinamide], the concentration for half-maximal inhibition (IC50) was found to be 0.417 nM.

With `Cc1nnc(-c2ccc(CN3CCC(NC(=O)c4ccc(-c5cccc(F)c5)nc4)CC3)cc2)o1` [Example 454, 6-(3-Fluorophenyl)-N-{1-[4-(5-methyl-1,3,4-oxadiazol-2-yl)benzyl]piperidin-4-yl}nicotinamide], the IC50 stood at 0.82 nM.
